Reference: US7700584B2 (Hangzhou Minsheng Pharmaceuticals Co., Ltd., priority 2004, dated 2010)
≈ marks a conversion by molar mass, not a printed value. Structures can show the parent of a compound that is named as a salt. Where two headings read alike, the source gives them in different places.

Key:
[1] = system: Bel-7402 human hepatic carcinoma; test: In vitro inhibition rate to tumor cells (MTT), Bel-7402; format: cell-based; conditions: for inhibition rate, Results (%) Bel-7402: 50 μg/ml; for inhibition at 50 µg/mL: Homo sapiens
[2] = system: Hela human cervical carcinoma; test: In vitro inhibition rate to tumor cells (MTT), Hela; format: cell-based; conditions: for inhibition at 50 µg/mL: Homo sapiens, HeLa
[3] = biological target: T1, HIV-1 reverse transcriptase (Human immunodeficiency virus type 1 group M subtype B, UniProt P04585); test: Screening for the in vitro activity against the HIV-1 reverse transcriptase; format: biochemical; conditions: initial concentration 200 μg/ml
T1 construct: purchased
Experimental: Principle of the test: The template to which the HIV-1 reverse transcriptase interacts was covered onto the enzyme-lined template. In the optimal reaction conditions and system, HIV-1 RT will put the substrate comprising Biotin-dUTP onto the reaction template. The activity of the enzyme was measured as the amount of the integrating Biotin-dUTP in the reaction by using streptavidin-labeled horseradish peroxidase. Adding the sample to the reaction system can identify inhibitor of the enzyme.
1. HIV-1 RT: commercially available.
2. Treatment of the samples: Before use, the sample was dissolved in DMSO at a suitable concentration, then serially diluted (5×) with double distilled water, five serial dilutions per sample.
4. Methods: The diluted sample was added into the reaction buffer containing Biotin-dUTP and the genetic engineered target enzyme, and incubated in the optimal reaction conditions. A streptavidin-labeled horseradish peroxidase was added to visual the system, and OD450 was measured.

[4] = system: U-937 human histocytic lymphoma; test: In vitro anti-tumor IC50 (MTT), U-937; format: cell-based; conditions: Table 4
Experimental: (§1) (1) Single cell suspension was seeded into 96-well plates (the cells was diluted in the PRMI-1640 minimum medium to 3×10^4 cells/ml, […] diluted cells/well). […] The experiments were performed in quadruplicate.
(§2) (2) The medium was removed. Solutions of the anti-tumor agents (50 compounds) were prepared in a freshly prepared medium at serial concentrations. […] of the solution was added into each well. Incubation was continued for 48 hours.
(§3) (3) 20 ug of 2 mg/ml MTT was added into each well, and incubated for 4 hours.
(§4) (4) The medium was removed from the well. The microplates were swiftly turned down to throw-off the medium. […] of DMSO was added into each well, and vortexed at room temperature for 10 minutes.
(§5) (5) OD value (λ=570 nm) was measured with an Enzyme-Linked Detector.
(§6) (6) The graph of cell vitality was plotted, and IC50 was calculated.

[5] = system: SMMC-7721 human hepatic carcinoma; test: In vitro inhibition rate to tumor cells (MTT), SMMC-7721; format: cell-based; conditions: for inhibition rate, Results (%) SMMC-7721: 50 μg/ml, hydrochloride; for inhibition at 50 µg/mL: Homo sapiens
[6] = system: LLC mouse Lewis lung carcinoma; test: In vitro inhibition rate to tumor cells (MTT), LLC; format: cell-based; conditions: 50 μg/ml; for inhibition at 50 µg/mL: Mus musculus, Lewis lung carcinoma
[7] = system: A-549 human lung adenocarcinoma; test: In vitro inhibition rate to tumor cells (MTT), A-549; format: cell-based; conditions: for inhibition rate, Results (%) A-549: 50 μg/ml; for inhibition at 50 µg/mL: Homo sapiens
[8] = system: Hela human cervical carcinoma; test: In vitro anti-tumor IC50 (MTT), Hela; format: cell-based; conditions: Table 4
[9] = system: HL-60 human promyelocytic leukemia; test: In vitro anti-tumor IC50 (MTT), HL-60; format: cell-based; conditions: Table 4
Experimental: as §1, §2, §3, §4, §5, §6

[10] = system: HL-60 human promyelocytic leukemia; test: In vitro inhibition rate to tumor cells (MTT), HL-60; format: cell-based; conditions: for inhibition rate, Results (%) HL-60: 50 μg/ml; for inhibition at 50 µg/mL: Homo sapiens
[11] = system: MCF-7 human mammary adenocarcinoma; test: In vitro anti-tumor IC50 (MTT), MCF-7; format: cell-based; conditions: Table 4
Experimental: as §1, §2, §3, §4, §5, §6

[12] = system: U-937 human histocytic lymphoma; test: In vitro inhibition rate to tumor cells (MTT), U-937; format: cell-based; conditions: for inhibition rate, Results (%) U-937: 50 μg/ml; for inhibition at 50 µg/mL: Homo sapiens
[13] = biological target: T2, HIV-1 integrase (HIV-1 IN) (Human immunodeficiency virus type 1 group M subtype B, UniProt P04585); test: Screening for the activity against HIV-1 integrase; format: biochemical; conditions: initial concentration 100 μg/ml; read-out: IC50
T2 construct: a purified HIV-1 integrase was added into each well; purchased
Experimental: Principle of the test: A synthetic oligonucleotide of 30 nt was used as the donor substrate. A synthetic oligonucleotide of 20 nt was used as the target substrate. A 96-well plate was covered by the donor substrate, and a purified HIV-1 integrase was added into each well. ELISA was performed to measure the product of the target DNA chain transfer. A biotin-labeled alkali phosphatase was used to visual the system. OD value was measured by an Enzyme-linked Detector. Add a sample into the reaction system for screening the inhibitor of the enzyme.
1. HIV-1 IN: commercially available.
2. Treatment of the samples: Before use, the sample was dissolved in water or DMSO at a suitable concentration, then serially diluted (5×), four serial dilutions per sample. The stock solutions of two samples were 100-fold diluted with DMSO, then 5-fold diluted, four serial dilutions per sample. Positive control: S-y, provided by Shanghai Organic Chemistry Institute.
3. The donor substrate and target substrate: synthesized by Shanghai Biological Engineering Company (Shanghai Shenggong).
4. Methods: The diluted sample was added into a 96-well plate covered by the donor substrate, and then added into the reaction buffer containing the genetic engineered target enzyme and biotin-target substrate, incubated in the optimal reaction conditions. A biotin-labeled alkali phosphatase was used to visual the system to determine the absorbance at 450 nm (OD450).

[14] = Table 2 (repeated screening), hydrochloride

## CC(C)C1CC23OC1(O)C/C(=C\Nc1ccc(O)cc1)C2CCC3C (stereo not shown) [Compound 6, Curcumol p-hydroxy aniline hydrochloride]
[1]; Table 1, hydrochloride
  inhibition rate, Results (%) Bel-7402: 81.84%
[1]; [14]
  inhibition rate, Results (%) Bel-7402: 81.84%
[1]; Bel-7402, 50 μg/ml, Table 3 (repeated screening), read-out: inhibition rate, Results (%) Bel-7402
  inhibition at 50 µg/mL: 83.6%
[2]; 50 μg/ml, Table 1, hydrochloride
  inhibition rate, Results (%) Hela: 95.26%
[2]; 50 μg/ml, Table 2 (repeated screening), hydrochloride
  inhibition rate, Results (%) Hela: 95.26%
[2]; 50 μg/ml, Table 3 (repeated screening), read-out: inhibition rate, Results (%) Hela
  inhibition at 50 µg/mL: 92.3%
[3]
  IC50: > 582 µM
[4]; hydrochloride
  IC50 (ug/ml) against tumor cell lines, U-937: 0.56 µg/mL
[5]; Table 1
  inhibition rate, Results (%) SMMC-7721: 86.12%
[5]; Table 2 (repeated screening)
  inhibition rate, Results (%) SMMC-7721: 86.12%
[5]; SMMC-7721, 50 μg/ml, Table 3 (repeated screening), read-out: inhibition rate, Results (%) SMMC-7721
  inhibition at 50 µg/mL: 87.1%
[6]; Table 1, hydrochloride
  inhibition rate, Results (%) LLC: 88.23%
[6]; [14]
  inhibition rate, Results (%) LLC: 87.02%
[6]; Table 3 (repeated screening)
  inhibition at 50 µg/mL: 85%
[7]; Table 1, hydrochloride
  inhibition rate, Results (%) A-549: 91.84%
[7]; [14]
  inhibition rate, Results (%) A-549: 92.84%
[7]; A549, 50 μg/ml, Table 3 (repeated screening), read-out: inhibition rate, Results (%) A-549
  inhibition at 50 µg/mL: 90.1%
[8]; hydrochloride
  IC50 (ug/ml) against tumor cell lines, Hela: 0.35 µg/mL
[9]; hydrochloride
  IC50 (ug/ml) against tumor cell lines, HL-60: 0.51 µg/mL
[10]; Table 1, hydrochloride
  inhibition rate, Results (%) HL-60: 93.21%
[10]; [14]
  inhibition rate, Results (%) HL-60: 93.21%
[10]; HL-60, 50 μg/ml, Table 3 (repeated screening), read-out: inhibition rate, Results (%) HL-60
  inhibition at 50 µg/mL: 95.5%
[11]; hydrochloride
  IC50 (ug/ml) against tumor cell lines, MCF: 1.10 µg/mL
[12]; Table 1, hydrochloride
  inhibition rate, Results (%) U-937: 90.92%
[12]; [14]
  inhibition rate, Results (%) U-937: 94.12%
[12]; U-937, 50 μg/ml, Table 3 (repeated screening), read-out: inhibition rate, Results (%) U-937
  inhibition at 50 µg/mL: 94.1%

## CC(C)C1CC23OC1(O)C/C(=C\Nc1ccc(O)cc1)C2CCC3C (stereo not shown) [Compound 5, Curcumol p-hydroxy aniline]
[1]; Table 3 (repeated screening)
  inhibition rate, Results (%) Bel-7402: 78.97%
[1]; Bel-7402, 50 μg/ml, Table 2 (repeated screening), read-out: inhibition rate, Results (%) Bel-7402
  inhibition at 50 µg/mL: 81.5%
[1]; Bel-7402, read-out: inhibition rate, Results (%) Bel-7402, 50 μg/ml, Table 1
  inhibition at 50 µg/mL: 80.2%
[13]
  inhibition at 100 µg/mL: < 50%
[2]; 50 μg/ml, Table 3 (repeated screening)
  inhibition rate, Results (%) Hela: 94.55%
[2]; 50 μg/ml, Table 2 (repeated screening), read-out: inhibition rate, Results (%) Hela
  inhibition at 50 µg/mL: 92.3%
[2]; read-out: inhibition rate, Results (%) Hela, 50 μg/ml, Table 1
  inhibition at 50 µg/mL: 94.4%
[3]; read-out: IC50
  IC50: > 582 µM
[4]; Homo sapiens, U-937, read-out: IC50 (ug/ml) against tumor cell lines, U-937
  IC50: 0.42 µg/mL (≈ 1.22 µM)
[5]; SMMC-7721, 50 μg/ml, Table 2 (repeated screening), read-out: inhibition rate, Results (%) SMMC-7721
  inhibition at 50 µg/mL: 86.9%
[5]; SMMC-7721, read-out: inhibition rate, Results (%) SMMC-7721, 50 μg/ml, Table 1
  inhibition at 50 µg/mL: 85%
[6]; Table 1
  inhibition rate, Results (%) LLC: 3.21%
[6]; Table 3 (repeated screening)
  inhibition rate, Results (%) LLC: 86.54%
[6]; Table 2 (repeated screening)
  inhibition at 50 µg/mL: 85.1%
[7]; Table 3 (repeated screening)
  inhibition rate, Results (%) A-549: 91.23%
[7]; A549, 50 μg/ml, Table 2 (repeated screening), read-out: inhibition rate, Results (%) A-549
  inhibition at 50 µg/mL: 90%
[7]; A549, read-out: inhibition rate, Results (%) A-549, 50 μg/ml, Table 1
  inhibition at 50 µg/mL: 90.3%
[8]; Homo sapiens, HeLa, read-out: IC50 (ug/ml) against tumor cell lines, Hela
  IC50: 0.32 µg/mL (≈ 0.932 µM)
[9]; Homo sapiens, HL-60, read-out: IC50 (ug/ml) against tumor cell lines, HL-60
  IC50: 0.4 µg/mL (≈ 1.16 µM)
[10]; Table 3 (repeated screening)
  inhibition rate, Results (%) HL-60: 95.14%
[10]; HL-60, 50 μg/ml, Table 2 (repeated screening), read-out: inhibition rate, Results (%) HL-60
  inhibition at 50 µg/mL: 90.9%
[10]; HL-60, read-out: inhibition rate, Results (%) HL-60, 50 μg/ml, Table 1
  inhibition at 50 µg/mL: 91.3%
[11]; Homo sapiens, MCF7, read-out: IC50 (ug/ml) against tumor cell lines, MCF
  IC50: 1 µg/mL (≈ 2.91 µM)
[12]; Table 3 (repeated screening)
  inhibition rate, Results (%) U-937: 91.03%
[12]; U-937, 50 μg/ml, Table 2 (repeated screening), read-out: inhibition rate, Results (%) U-937
  inhibition at 50 µg/mL: 95.6%
[12]; U-937, read-out: inhibition rate, Results (%) U-937, 50 μg/ml, Table 1
  inhibition at 50 µg/mL: 94%
